Here are results for three compounds from PMC10093841 (International Journal of Molecular Sciences, 2023).

For assay [1], the system named is BChE. The arrangement: method as in doi:10.1007/s10068-015-0093-0. The note with it: at a concentration of 2 mg/mL; cited from earlier work.
The target in assay [2] is T1, acetylcholinesterase (AChE) type VI-S from Electrophorus electricus (Electrophorus electricus, UniProt O42275).
T1 construct: purchased Sigma-Aldrich
Description: Cholinesterase inhibition, Ellman's colorimetric method (AChE). The format is biochemical. The method, then:
(§1) Anti-GAPDH antibody and enhanced chemiluminescence reagents were purchased from Santa Cruz Biotechnology (Santa Cruz, CA, USA); horseradish peroxidase-conjugated secondary antibody was purchased from Amersham Biosciences (Pittsburgh, PA, USA). Nitrocellulose was purchased from Biorad (Hercules, CA, USA).
(§2) The cholinesterase inhibition was evaluated by Ellman’s colorimetric method with some modifications. Briefly, in a total volume of 1 mL, 415 µL of Tris-HCl buffer 0.1 M (pH 8), 10 µL of a buffer solution of carvacrol or p-cymene (in methanol) at different concentrations (100, 10, 1 and 0.1 µg/mL), and 25 µL of a solution containing 0.28 U/mL of AChE (or BChE) were incubated for 15 min at 37 °C. […] The absorbance was measured at 405 nm in a spectrophotometer (Thermo Scientific Multiskan GO, Monza, Italy).
(§3) The percent inhibition of enzyme activity for acetylcholinesterase, butyrylcholinesterase, and α-amylase was calculated by comparison with the absorbance of the control without sample, following the formula: % = [(A0 − A1)/A0] × 100(1) where A0 is the absorbance of the control without the sample and A1 is the absorbance of the sample.

Assay [3] addresses T2, porcine pancreatic amylase (Sus scrofa, UniProt P00690).
T2 construct: purchased Sigma-Aldrich
Description: biochemical. As for the experimental part:
as §1, §3

The target in assay [4] is T3, butyrylcholinesterase (BChE) from equine serum (Equus caballus, UniProt P81908).
T3 construct: purchased Sigma-Aldrich; host or cells: equine serum
T3 sequence (P81908 whole entry): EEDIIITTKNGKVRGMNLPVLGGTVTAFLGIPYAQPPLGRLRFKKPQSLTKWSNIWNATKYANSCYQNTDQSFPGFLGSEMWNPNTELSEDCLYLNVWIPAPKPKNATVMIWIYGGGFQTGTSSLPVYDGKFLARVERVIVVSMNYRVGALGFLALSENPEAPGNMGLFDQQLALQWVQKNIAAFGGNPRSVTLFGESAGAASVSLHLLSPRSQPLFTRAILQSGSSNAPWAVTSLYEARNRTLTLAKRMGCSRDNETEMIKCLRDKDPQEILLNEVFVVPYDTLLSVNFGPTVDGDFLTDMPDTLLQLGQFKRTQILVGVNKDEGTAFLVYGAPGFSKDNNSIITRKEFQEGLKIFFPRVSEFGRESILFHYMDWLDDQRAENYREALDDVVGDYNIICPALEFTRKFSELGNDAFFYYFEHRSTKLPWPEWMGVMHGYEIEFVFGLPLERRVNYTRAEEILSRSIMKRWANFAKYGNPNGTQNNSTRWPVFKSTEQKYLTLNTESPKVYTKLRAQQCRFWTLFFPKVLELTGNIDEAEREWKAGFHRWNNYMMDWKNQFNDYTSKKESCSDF
Description: biochemical. As for the experimental part:
as §1, §2, §3

Assay [5] deals with AChE. The note with it: carvacrol stronger than its isomer thymol; cited from earlier work.
The nature of assay [6]: Hydrogen peroxide scavenging assay (1,10-phenanthroline). The note with it: cell-free, concentration range 0–1000 μg/mL.
Description: Briefly, 0.25 mL of ferrous ammonium sulfate (1 mM) solution was mixed with 1.5 mL of different concentrations (from 6 to 500 μg/mL) of carvacrol, p-cymene; acid gallic was used as a positive control. Then, 62.5 µL of H2O2 (5 mM) was added and the mixture was incubated at room temperature in the dark for 5 min. Then, 1.5 mL of 1,10-phenanthroline (1 mM) was added to each tube, mixed, and incubated for 10 min at room temperature. Finally, the absorbance was measured at 510 nm through a spectrophotometer (Thermo Scientific Multiskan GO, Monza, Italy).
Assay [7] relates to caspase-3 in SH-SY5Y cells. The assay can be described thus: Caspase-3 expression (Western blot) in H2O2-induced stress. The note with it: pretreatment 50 μg/mL for 22 h, then H2O2 100 or 200 μM for 2 h. The format is cell-based, Human. As for the experimental part: To investigate the neuroprotective effects of carvacrol and p-cymene on H2O2-induced stress in SH-SY5Y cells, the cells were assigned to a total of nine groups: Group 1: control (untreated cells); Groups 2 and 3, cells treated with H2O2 alone, at 100 and 200 μM for two h; Groups 4–5: cells treated with carvacrol or p-cymene MNTD (50 µg/mL) Groups 6–9: cells pretreated with carvacrol or p-cymene MNTD for 22 h and then exposed to H2O2 at 100 and 200 μM for another two h. After the cell lysis, we determined the caspase-3 activity. For caspase-3 activity analysis, the SH-SY5Y cells (1 × 10^4) were seeded in separate wells in 12-well plates (Corning, Inc., Corning, NY, USA). The cells were allowed to reach 70–80% confluency before the treatment groups were initiated. The cells were collected after 24 h and lysed using the Laemmli buffer to extract total proteins. For Western blot analysis, an aliquot of total protein was run on 10% SDS-PAGE gel and transferred to nitrocellulose. […] Immunoreactivity was detected through a sequential incubation with horseradish peroxidase-conjugated secondary antibody and enhanced chemiluminescence reagents. Each band density was measured using ImageJ software (WS Rasband, Image J, NIH, Bethesda, MD, USA).
On the technique in general: Immunoblotting shows a protein as a band on a membrane.

“Also recorded” adds a separate entry of the source. Like-named read-outs stand apart in the source and are kept apart here.

T1 sequence (O42275 24-633): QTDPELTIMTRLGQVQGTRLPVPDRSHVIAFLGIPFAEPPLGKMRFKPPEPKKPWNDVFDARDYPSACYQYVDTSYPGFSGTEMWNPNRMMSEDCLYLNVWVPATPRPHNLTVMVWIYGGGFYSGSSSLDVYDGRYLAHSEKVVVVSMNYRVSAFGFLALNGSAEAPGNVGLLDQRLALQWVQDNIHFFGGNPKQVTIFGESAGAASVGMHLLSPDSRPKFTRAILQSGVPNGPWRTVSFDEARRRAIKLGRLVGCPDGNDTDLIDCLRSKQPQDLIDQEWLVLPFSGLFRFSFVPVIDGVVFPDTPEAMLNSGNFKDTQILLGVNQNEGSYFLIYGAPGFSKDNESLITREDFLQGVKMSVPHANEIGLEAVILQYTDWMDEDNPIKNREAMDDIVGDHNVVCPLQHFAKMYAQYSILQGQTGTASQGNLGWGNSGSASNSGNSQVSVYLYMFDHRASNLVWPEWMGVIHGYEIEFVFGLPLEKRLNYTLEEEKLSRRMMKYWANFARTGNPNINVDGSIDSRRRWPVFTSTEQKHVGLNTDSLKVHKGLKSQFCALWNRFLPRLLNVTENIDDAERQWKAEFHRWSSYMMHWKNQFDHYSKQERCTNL
T2 sequence (P00690 16-511): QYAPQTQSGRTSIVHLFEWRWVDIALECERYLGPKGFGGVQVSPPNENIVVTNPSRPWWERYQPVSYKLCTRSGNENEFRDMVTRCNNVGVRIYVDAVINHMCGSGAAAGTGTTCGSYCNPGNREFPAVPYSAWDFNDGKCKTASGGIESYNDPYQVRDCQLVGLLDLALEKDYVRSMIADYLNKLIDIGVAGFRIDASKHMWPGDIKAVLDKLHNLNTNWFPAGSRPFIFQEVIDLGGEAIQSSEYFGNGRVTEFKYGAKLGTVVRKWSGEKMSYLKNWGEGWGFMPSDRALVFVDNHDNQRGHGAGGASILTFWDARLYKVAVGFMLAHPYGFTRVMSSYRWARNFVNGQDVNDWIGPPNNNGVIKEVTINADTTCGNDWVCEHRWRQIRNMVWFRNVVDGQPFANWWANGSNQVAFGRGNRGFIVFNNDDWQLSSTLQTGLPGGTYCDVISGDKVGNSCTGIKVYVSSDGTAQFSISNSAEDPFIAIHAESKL

`Cc1ccc(C(C)C)c(O)c1` [Thymol]: in assay [1], the “inhibition of BChE activity” value was 42.2%.

A word on the IC50: it is the concentration needed to halve the response being measured. With `Cc1ccc(C(C)C)cc1` [p-Cymene], the IC50 in assay [2] is 113 µM; in assay [3], 1600 µM; in assay [4], 10800 µM.

As for `Cc1ccc(C(C)C)cc1O` [Carvacrol], the IC50 is 25.3 µM in assay [2]; 1140 µM in assay [3] (read-out: IC50 α-Amylase (converted)); 218 µM in assay [4] (concentration required to reduce the enzymatic activity by 50%, read-out: IC50 BChE (converted)). Besides, the “inhibitory effect relative to thymol” value in assay [5] is 10 times. In addition, in assay [6], the H2O2 scavenging activity result is reported as “more active than p-cymene”. Besides, the caspase-3 expression entry in assay [7] is “reduced; also recorded: caspase-3 was inhibited”.
